{"source": "patent US20220031596A1", "about": "“ANTI-AGING AGENT AND ANTI-AGING METHOD” (priority 2018, published 2022)", "format_in_all_cases": "in vivo, human", "key": {"[1]": {"test_system": "ghrelin concentration in the plasma", "assay": "Evaluation of ghrelin secretion promoting effect (plasma ghrelin, 24-week oral ingestion)", "settings": "for ghrelin concentration in the plasma, 0 weeks (before ingestion) / ghrelin concentration in the plasma, 24 weeks (after ingestion) / ghrelin concentration in the plasma, Change rate (24 weeks - 0 weeks): High Dose Group (200 mg/daily, oral), mean±SD; for ghrelin concentration in the plasma, 0 weeks (before ingestion): baseline", "method": "In order to confirm a change in the ghrelin quantity before and after ingestion of the nicotinamide mononucleotide, a test was conducted on healthy males and females aged 50 to 70 years.\nAs a sample of Working Example 3, a capsule formulation containing the nicotinamide mononucleotide and starch (200 mg of the nicotinamide mononucleotide in 4 capsules) (manufactured by SHINKOWA PHARMACEUTICAL Co., Ltd.) was used.\n(§1) Each group consisting of five healthy males and females aged 50 to 70 years in an unbiased age group ingested the above capsule formulation once a day by 4 capsules for 24 weeks (total 10 subjects, 200 mg/daily ingestion). In order to conduct appropriate evaluations, those who had been regularly using medical products for chronic diseases, those who had been consuming healthy foods that may affect clinical research, and those who were currently participating in other clinical researches or clinical trials or had participated in other clinical researches or clinical trials within the last three months were excluded from the subject for the evaluation. The capsule formulations were ingested at 10 am (between meals and fasting state) together with water or lukewarm water (oral administration).\nMeasurement of the ghrelin quantity in the plasma was conducted by requesting the measurement to an external public organization according to a usual method. FIGS. 6a to 6c indicate transitions of the ghrelin concentration (pg/ml) in the plasma for 24 weeks. FIG. 6a represents the transitions of the whole subjects; FIG. 6b represents the transitions of the male subjects; FIG. 6c represents the transitions of the female subjects. Further, FIGS. 7a to 7c indicate change rates (%) of the blood ghrelin concentration up to 24 weeks when the nicotinamide mononucleotide was orally administered to the subjects for 24 weeks. FIG. 7a represents the change rates of the whole subjects; FIG. 7b represents the change rates of the male subjects; FIG. 7c represents the change rates of the female subjects. Further, Table 3 indicates the numerical values of the ghrelin concentration (pg/ml) in the plasma before the ingestion of the nicotinamide mononucleotide (0 weeks) and after the ingestion of the nicotinamide mononucleotide (24 weeks). Note that the numerical values represent mean values±standard deviation."}, "[2]": {"test_system": "estradiol concentration in the plasma", "assay": "Evaluation of estradiol secretion promoting effect (plasma estradiol, 24-week oral ingestion)", "settings": "for estradiol concentration in the plasma, 0 weeks (before ingestion) / estradiol concentration in the plasma, 24 weeks (after ingestion) / estradiol concentration in the plasma, Change rate (24 weeks - 0 weeks): Low Dose Group (100 mg/daily, oral), mean±SD; for estradiol concentration in the plasma, 0 weeks (before ingestion): baseline", "method": "In order to confirm a change in the estradiol quantity before and after ingestion of the nicotinamide mononucleotide, a test was conducted on healthy males and females aged 50 to 70 years.\nAs a sample of Working Example 7, a capsule formulation containing the nicotinamide mononucleotide and starch (100 mg of the nicotinamide mononucleotide in 4 capsules) (manufactured by SHINKOWA PHARMACEUTICAL Co., Ltd.) was used.\n[…] In order to conduct appropriate evaluations, those who had been regularly using medical products for chronic diseases, those who had been consuming healthy foods that may affect clinical research, and those who were currently participating in other clinical researches or clinical trials or had participated in other clinical researches or clinical trials within the last three months were excluded from the subject for the evaluation. The capsule formulations were ingested at 10 am (between meals and fasting state) together with water or lukewarm water (oral administration).\nMeasurement of the estradiol quantity in the plasma was conducted by requesting the measurement to an external public organization according to a usual method. FIGS. 14a to 14c indicate transitions of the estradiol concentration (pg/ml) in the plasma for 24 weeks. FIG. 14a represents the transitions of the whole subjects; FIG. 14b represents the transitions of the male subjects; FIG. 14c represents the transitions of the female subjects. Further, FIGS. 15a to 15c indicate change rates (%) of the blood estradiol concentration up to 24 weeks when the nicotinamide mononucleotide was orally administered to the subjects for 24 weeks. FIG. 15a represents the change rates of the whole subjects; FIG. 15b represents the change rates of the male subjects; FIG. 15c represents the change rates of the female subjects. Further, Table 7 indicates the numerical values of the estradiol concentration (pg/ml) in the plasma before the ingestion of the nicotinamide mononucleotide (0 weeks) and after the ingestion of the nicotinamide mononucleotide (24 weeks). Note that the numerical values represent mean values±standard deviation."}, "[3]": {"test_system": "adrenocorticotropic hormone concentration in the plasma", "assay": "Evaluation of adrenocorticotropic hormone secretion promoting effect (plasma ACTH, 24-week oral ingestion)", "settings": "for adrenocorticotropic hormone concentration in the plasma, 0 weeks (before ingestion) / adrenocorticotropic hormone concentration in the plasma, 24 weeks (after ingestion) / adrenocorticotropic hormone concentration in the plasma, Change rate (24 weeks - 0 weeks): High Dose Group (200 mg/daily, oral), mean±SD; for adrenocorticotropic hormone concentration in the plasma, 0 weeks (before ingestion): baseline", "method": "In order to confirm a change in the adrenocorticotropic hormone quantity before and after ingestion of the nicotinamide mononucleotide, a test was conducted on healthy males and females aged 50 to 70 years.\nAs a sample of Working Example 10, a capsule formulation containing the nicotinamide mononucleotide and starch (200 mg of the nicotinamide mononucleotide in 4 capsules) (manufactured by SHINKOWA PHARMACEUTICAL Co., Ltd.) was used.\nas §1, with “above high dose” for “above”\nMeasurement of the adrenocorticotropic hormone quantity in the plasma was conducted by requesting the measurement to an external public organization according to a usual method. FIGS. 20a to 20c indicate transitions of the adrenocorticotropic hormone concentration (pg/ml) in the plasma for 24 weeks. FIG. 20a represents the transitions of the whole subjects; FIG. 20b represents the transitions of the male subjects; FIG. 20c represents the transitions of the female subjects. Further, FIGS. 21a to 21c indicate change rates (%) of the blood adrenocorticotropic hormone concentration up to 24 weeks when the nicotinamide mononucleotide was orally administered to the subjects for 24 weeks. FIG. 21a represents the change rates of the whole subjects; FIG. 21b represents the change rates of the male subjects; FIG. 21c represents the change rates of the female subjects. Further, Table 10 indicates the numerical values of the adrenocorticotropic hormone concentration (pg/ml) in the plasma before the ingestion of the nicotinamide mononucleotide (0 weeks) and after the ingestion of the nicotinamide mononucleotide (24 weeks). Note that the numerical values represent mean values±standard deviation."}}}
{"smiles": "NC(=O)c1ccc[n+]([C@@H]2O[C@H](COP(=O)([O-])O)[C@@H](O)[C@H]2O)c1", "note": "[nicotinamide mononucleotide]", "values": [{"measurement": "ghrelin concentration in the plasma, 0 weeks (before ingestion)", "setting": "[1]; Female", "result": "260 ± 111", "unit": "pg/mL"}, {"measurement": "ghrelin concentration in the plasma, 24 weeks (after ingestion)", "setting": "[1]; Female", "result": "990 ± 834", "unit": "pg/mL"}, {"measurement": "ghrelin concentration in the plasma, Change rate (24 weeks - 0 weeks)", "setting": "[1]; Female", "result": "730 ± 847", "unit": "pg/mL"}, {"measurement": "ghrelin concentration in the plasma, 0 weeks (before ingestion)", "setting": "[1]; Male", "result": "111 ± 91", "unit": "pg/mL"}, {"measurement": "ghrelin concentration in the plasma, 24 weeks (after ingestion)", "setting": "[1]; Male", "result": "152 ± 131", "unit": "pg/mL"}, {"measurement": "ghrelin concentration in the plasma, Change rate (24 weeks - 0 weeks)", "setting": "[1]; Male", "result": "40 ± 50", "unit": "pg/mL"}, {"measurement": "ghrelin concentration in the plasma, 0 weeks (before ingestion)", "setting": "[1]; Whole Subjects", "result": "186 ± 124", "unit": "pg/mL"}, {"measurement": "ghrelin concentration in the plasma, 24 weeks (after ingestion)", "setting": "[1]; Whole Subjects", "result": "571 ± 716", "unit": "pg/mL"}, {"measurement": "ghrelin concentration in the plasma, Change rate (24 weeks - 0 weeks)", "setting": "[1]; Whole Subjects", "result": "385 ± 672", "unit": "pg/mL"}, {"measurement": "ghrelin concentrations in the plasma, effect of ingestion (in words)", "setting": "[1]; oral, 200 mg/daily, 24 weeks, FIGS. 6a-6c, 7a-7c", "result": "increased"}, {"measurement": "estradiol concentration in the plasma, 0 weeks (before ingestion)", "setting": "[2]; Female", "result": "10.0 ± 0.0", "unit": "pg/mL"}, {"measurement": "estradiol concentration in the plasma, 24 weeks (after ingestion)", "setting": "[2]; Female", "result": "40.8 ± 70.6", "unit": "pg/mL"}, {"measurement": "estradiol concentration in the plasma, Change rate (24 weeks - 0 weeks)", "setting": "[2]; Female", "result": "30.8 ± 70.6", "unit": "pg/mL"}, {"measurement": "estradiol concentration in the plasma, 0 weeks (before ingestion)", "setting": "[2]; Male", "result": "24.0 ± 9.4", "unit": "pg/mL"}, {"measurement": "estradiol concentration in the plasma, 24 weeks (after ingestion)", "setting": "[2]; Male", "result": "24.9 ± 7.7", "unit": "pg/mL"}, {"measurement": "estradiol concentration in the plasma, Change rate (24 weeks - 0 weeks)", "setting": "[2]; Male", "result": "0.9 ± 5.6", "unit": "pg/mL"}, {"measurement": "estradiol concentration in the plasma, 0 weeks (before ingestion)", "setting": "[2]; Whole Subjects", "result": "17.0 ± 9.7", "unit": "pg/mL"}, {"measurement": "estradiol concentration in the plasma, 24 weeks (after ingestion)", "setting": "[2]; Whole Subjects", "result": "32.9 ± 48.1", "unit": "pg/mL"}, {"measurement": "estradiol concentration in the plasma, Change rate (24 weeks - 0 weeks)", "setting": "[2]; Whole Subjects", "result": "15.9 ± 49.8", "unit": "pg/mL"}, {"measurement": "estradiol concentrations in the plasma, effect of ingestion (in words)", "setting": "[2]; oral, 100 mg/daily, 24 weeks, FIGS. 14a-14c, 15a-15c", "result": "increased"}, {"measurement": "adrenocorticotropic hormone concentration in the plasma, 0 weeks (before ingestion)", "setting": "[3]; Female", "result": "17.5 ± 7.0", "unit": "pg/mL"}, {"measurement": "adrenocorticotropic hormone concentration in the plasma, 24 weeks (after ingestion)", "setting": "[3]; Female", "result": "21.9 ± 14.2", "unit": "pg/mL"}, {"measurement": "adrenocorticotropic hormone concentration in the plasma, Change rate (24 weeks - 0 weeks)", "setting": "[3]; Female", "result": "4.4 ± 15.3", "unit": "pg/mL"}, {"measurement": "adrenocorticotropic hormone concentration in the plasma, 0 weeks (before ingestion)", "setting": "[3]; Male", "result": "24.4 ± 10.0", "unit": "pg/mL"}, {"measurement": "adrenocorticotropic hormone concentration in the plasma, 24 weeks (after ingestion)", "setting": "[3]; Male", "result": "35.7 ± 10.2", "unit": "pg/mL"}, {"measurement": "adrenocorticotropic hormone concentration in the plasma, Change rate (24 weeks - 0 weeks)", "setting": "[3]; Male", "result": "11.3 ± 4.6", "unit": "pg/mL"}, {"measurement": "adrenocorticotropic hormone concentration in the plasma, 0 weeks (before ingestion)", "setting": "[3]; Whole Subjects", "result": "20.9 ± 8.9", "unit": "pg/mL"}, {"measurement": "adrenocorticotropic hormone concentration in the plasma, 24 weeks (after ingestion)", "setting": "[3]; Whole Subjects", "result": "28.8 ± 13.7", "unit": "pg/mL"}, {"measurement": "adrenocorticotropic hormone concentration in the plasma, Change rate (24 weeks - 0 weeks)", "setting": "[3]; Whole Subjects", "result": "7.8 ± 11.2", "unit": "pg/mL"}, {"measurement": "adrenocorticotropic hormone concentrations in the plasma, effect of ingestion (in words)", "setting": "[3]; oral, 200 mg/daily, 24 weeks, FIGS. 20a-20c, 21a-21c", "result": "increased"}]}
